For seven compounds, IC50 results are on record in patent US5304549A, “Amino acid derivatives” (Hoffmann-La Roche Inc., priority 1991, dated 1994).

The structures appear in SMILES notation. Counter-ions that a name gives are not always drawn.

This assay has as its target T1, collagenase obtained from a culture of human synovial fibroblasts (Homo sapiens, UniProt P03956).
T1 construct: endogenous in cells; host or cells: human synovial fibroblasts in culture (conditioned medium)
T1 sequence (P03956 100-469): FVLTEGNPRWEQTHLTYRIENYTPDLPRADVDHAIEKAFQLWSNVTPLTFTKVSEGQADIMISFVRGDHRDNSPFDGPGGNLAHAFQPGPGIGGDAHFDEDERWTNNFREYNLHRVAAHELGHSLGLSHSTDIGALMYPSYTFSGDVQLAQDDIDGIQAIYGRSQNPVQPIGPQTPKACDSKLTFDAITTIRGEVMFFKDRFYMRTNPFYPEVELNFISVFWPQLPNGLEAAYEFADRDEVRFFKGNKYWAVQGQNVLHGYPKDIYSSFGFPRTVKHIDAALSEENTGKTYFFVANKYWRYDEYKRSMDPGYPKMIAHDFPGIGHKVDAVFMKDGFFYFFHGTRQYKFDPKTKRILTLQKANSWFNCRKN
The assay can be described thus: in vitro collagenase inhibiting activity (14C-acetylated collagen type I from rat tail tendons as substrate, microtitre plate assay). The class given is biochemical. The note with it: human synovial fibroblast collagenase, trypsin-activated; 14C-acetylated rat tail tendon collagen type I.
For the compound `CNC(=O)[C@@H](NC(=O)C(CC(C)C)[C@H](C)C(=O)NO)C(C)(C)C` (single isomer, unassigned; isomer 2) [Compound D, N^2-[2(R or S)-[1(S)-(hydroxycarbamoyl)ethyl]-4-methylvaleryl]-N^1,3-dimethyl-L-valinamide (isomer 2)], half-maximal inhibition (IC50) was put at 2 nM.
The figure for `CNC(=O)[C@@H](NC(=O)C(CC(C)C)CP(=O)(O)CN1C(=O)c2cccc3c(O)c(Br)cc(c23)C1=O)C(C)(C)C` (single isomer, unassigned) [Compound B, N^2-[2(R or S)-[[[(5-bromo-2,3-dihydro-6-hydroxy-1,3-dioxo-1H-benz[d,e]isoquinol-2-yl)methyl](hydroxy)phosphinyl]methyl]-4-methylvaleryl]-N^1,3-dimethyl-L-valinamide] is 4 nM; for `CNC(=O)[C@@H](NC(=O)[C@H](CC(C)C)C(CCCc1ccccc1)C(=O)NO)C(C)(C)C` (single isomer, unassigned) [Compound G, N^2-[2(R)-[1(R or S)-(hydroxycarbamoyl)-4-phenylbutyl]-4-methylvaleryl]-N^1,3-dimethyl-L-valinamide] it is 1.9 nM; for `CNC(=O)[C@@H](NC(=O)[C@H](CC(C)C)C(CN1C(=O)CCC1=O)C(=O)NO)C(C)(C)C` (single isomer, unassigned) [Compound H, N^2-[2(R)-[1(R or S)-(hydroxycarbamoyl)-2-succinimidoethyl]-4-methylvaleryl]-N^1,3-dimethyl-L-valinamide] it is 0.5 nM.
For `CNC(=O)[C@@H](NC(=O)[C@@H](CC(=O)NO)CC(C)C)C(C)(C)C` [Compound A, N^2-[2(R)-[Hydroxycarbamoylmethyl]-4-methylvaleryl]-N^1,3-dimethyl-L-valinamide], half-maximal inhibition (IC50) required 4 nM.
As to `CNC(=O)C(NC(=O)C(CC(C)C)C(N)P(=O)(O)CN1C(=O)c2cccc3c(O)c(Br)cc(c23)C1=O)C(C)(C)C` (single isomer, unassigned) [Compound C, N^2-[2-(R or S)-[[(R)-(amino)-[(5-bromo-2,3-dihydro-6-hydroxy-1,3-dioxo-1H-benz[d,e]isoquinol-2-yl)methyl](hydroxy)phosphinyl]methyl]-4-methylvaleryl]-N^1,3-dimethyl-L-valinamide hydrobromide], inhibition was half-maximal at 9 nM (IC50).
Take `CNC(=O)[C@@H](NC(=O)[C@H](CC(C)C)C(CCCC(=O)OC)C(=O)NO)C(C)(C)C` (single isomer, unassigned) [Compound F, N^2-[2(R)-[1(R or S)-(hydroxycarbamoyl)-4-(methoxycarbonyl)butyl]-4-methylvaleryl]-N^1,3-dimethyl-L-valinamide]: it took 0.9 nM to reach half-maximal inhibition (IC50).
